Measured values: US4959368A, “Therapeutic agent for neurological diseases” (Mitsui Petrochemical Industries Ltd., priority 1986, dated 1990)

Key:
[1] = test system: human neuroblastoma cell line GOTO; test: Activity on neuroblastoma cell line GOTO (cell number, number and length of neurites); assay type: cell-based; conditions: for Number of cells: control 3.17
Summary of the method: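 GOTO cells were cultured 1–2 days at 37 °C, 5% CO2, then switched to serum-free RPMI/MEM (1:1) with compounds in PBS at various concentrations for 24 h. Living cells were counted by erythrosine exclusion (3–6 dishes); neurite number and length per cell were measured from photographs.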

[2] = test system: mice; test: Acute toxicity, mouse; assay type: in vivo; conditions: 24 hours
Experimental: (§1) The acute toxicity of the compounds of the invention was examined by the following method.
(§2) Male ddy-strain 5-week old mice and male Wistar-strain 8 week old rats, five per group, were used as experimental animals. Each of the compounds was dissolved in saline and administered perorally, and the toxicity of the compound was assessed 24 hours after the administration.

[3] = Acute toxicity, rat; assay type: in vivo; conditions: in vivo, po, read-out: Presumed LD50
Experimental: as §1, §2

[4] = test system: rats; test: Acute toxicity, rat; assay type: in vivo; conditions: 24 hours
Experimental: as §1, §2

[5] = test system: mouse neuroblastoma cell line neuro-2a; test: Activity on neuro-2a, cells with outgrown neurites; assay type: cell-based; conditions: Table 3 Run No. 6, control 4.4 ± 0.9
Summary of the method: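 Mouse neuro-2a cells in DMEM with FCS exposed to compounds for 24 h (up to 6 concentrations, triplicate runs), glutaraldehyde-fixed and methylene blue-stained. Proportion of cells bearing a neurite at least twice the cell's long diameter counted microscopically over ≥200 cells.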

[6] = test system: mouse neuroblastoma cell line neuro-2a; test: Activity on cell line neuro-2a (simple method); assay type: cell-based; conditions: control 7.9
Experimental: The biological activities in vitro of the compounds of formula (I) on cells of the nervous system were tested. The cells tested were human neuroblastoma cell line GOTO [see Sekiguchi, M., Oota, T., Sakakibara, K., Inui, N. & Fujii, G., Japan. J. Exp. Med., 49, 67-83 (1979)], and neuroblastoma cell line NB-1 [see Miyake, S., Shimo, Y., Kitamura, T., Nojyo, Y., Nakamura, T., Imkashuku, S. and Abe, T., The Autonomic Nervous System, 10, 115-120 (1973)], and mouse neuroblastoma cell line neuro-2a (Dainippon Pharmaceutical Co., Ltd.) which have been established as the cells of the nervous system. The above neuve cells were grown in an incubator at 37° C. in the presence of 5% carbon dioxide gas exponentially, and then cultivated for a certain period of time together with the compounds of formula (I). […]
(§3) As a simple method of evaluation, the number of cells have neurites with a length equal to, or larger than, the long diameter of the cell was divided by the total number of cells.

[7] = Acute toxicity, mouse; assay type: in vivo; conditions: in vivo, po, Table 6, p.o., read-out: Presumed LD50
Experimental: as §1, §2

[8] = test system: human neuroblastoma cell line GOTO; test: Activity on cell line GOTO (simple method); assay type: cell-based; conditions: Table 2 GOTO Run No. 2; 10 μg/ml; control 8.4
Experimental: The biological activities in vitro of the compounds of formula (I) on cells of the nervous system were tested. The cells tested were human neuroblastoma cell line GOTO [see Sekiguchi, M., Oota, T., Sakakibara, K., Inui, N. & Fujii, G., Japan. J. Exp. Med., 49, 67-83 (1979)], and neuroblastoma cell line NB-1 [see Miyake, S., Shimo, Y., Kitamura, T., Nojyo, Y., Nakamura, T., Imkashuku, S. and Abe, T., The Autonomic Nervous System, 10, 115-120 (1973)], and mouse neuroblastoma cell line neuro-2a (Dainippon Pharmaceutical Co., Ltd.) which have been established as the cells of the nervous system. The above neuve cells were grown in an incubator at 37° C. in the presence of 5% carbon dioxide gas exponentially, and then cultivated for a certain period of time together with the compounds of formula (I).
A culture medium [composed of 45% of RPMI 1640 medium, 45% modified Eagle's medium (MEM) and 10% of fetal calf serum (FCS) and containing penicillin G sodium (100 units/ml) and streptomycin sulfate (100 microgram/ml)] containing neurobalstoma cell line GOTO in the logarithmic growth period was poured in an amount of 2 ml each into polystyrene dishes (35 mm; made by Corning Co.) so that the cell concentration was 2 to 6×10^4 cells per dish, and the cells were cultured for 1 to 2 days in a carbon dioxide gas incubator containing 5% of carbon dioxide gas in air at 37° C. Then, the culture fluid was removed, and 2 ml of a fresh serum-free culture fluid (consisting of 50% of RPMI medium and 50% of MEM medium and containing penicillin G sodium and streptomycin sulfate in the same amounts as above) was added. At the same time, a presterilized PBS solution (phosphate buffered saline) of each of the test compounds in various concentrations was added to each of the dishes. After culturing for 24 hours, the number of living cells was counted. Furthermore, the culture was photographed, and from the photos, the number and length of neurites per cell were measured. The numer of living cells was counted for 3 to 6 dishes by resistance to staining with erythrosine dye. The number and length of the neurites were measured with regard to 6 photos (more than 200 cells per photo).
as §3

CCN1Cc2nc(N3CCNCC3)ncc2C1=O [Compound 616]
Length of neurites (mean ± S.D.) ([1]; Table 1, Run No. 6 by footnote, 1 μg/ml, control 42.48 ± 19.64, all *P <0.01): 56.68 ± 23.36 μm/cell | Number of neurites/cell (mean ± S.D.) ([1]; Table 1, Run No. 6 by footnote, 10 μg/ml, control 1.79 ± 0.80): 2.13 ± 0.91 neurites/cell | Length of neurites (mean ± S.D.) ([1]; Table 1, Run No. 6 by footnote, 10 μg/ml, control 42.48 ± 19.64, all *P <0.01): 57.96 ± 27.96 μm/cell | Number of neurites/cell (mean ± S.D.) ([1]; Table 1, second control group (Run No. 6 by footnote), 1 μg/ml, control 1.79 ± 0.80): 2.04 ± 0.91 neurites/cell | Number of dead animals/number of test animals ([2]; Table 7, 1000 mg/kg p.o.): 0/5 | Number of dead animals/number of test animals ([2]; Table 7, 1700 mg/kg p.o.): 0/5 | Number of dead animals/number of test animals ([2]; Table 7, 3000 mg/kg p.o.): 4/5 | LD50 at 24 h ([3]; Table 7, p.o.): > 1700 mg/kg | Number of dead animals/number of test animals ([4]; Table 7, 1700 mg/kg p.o.): 0/5 | Cells having neurites with a length at least twice the long diameter of cell/total number of cells ([5]; 0.3 mM): 10.6 ± 1.5% | Cells having neurites with a length at least twice the long diameter of cell/total number of cells ([5]; 1 mM): 10.3 ± 1.4% | Average of the proportions ([6]; Table 2 neuro-2a Run No. 2, 1 μg/ml): 15.79% | Average of the proportions ([6]; Table 2 neuro-2a Run No. 2, 10 μg/ml): 18.40%

Cn1ccc2nc(N3CCNCC3)ncc2c1=O [Compound 706]
Number of neurites/cell (mean ± S.D.) ([1]; Table 1 Run No. 3, 0.1 μg/ml, control 1.94 ± 0.69, *P <0.01): 2.30 ± 0.75 neurites/cell | Number of cells ([1]; Table 1 Run No. 3, 0.1 μg/ml): 3.81 × 10^4 /dish | Length of neurites (mean ± S.D.) ([1]; Table 1 Run No. 3, 0.1 μg/ml, control 45.13 ± 22.71, *P <0.01): 72.11 ± 26.58 μm/cell | Number of neurites/cell (mean ± S.D.) ([1]; Table 1 Run No. 3, 1 μg/ml, control 1.94 ± 0.69, all *P <0.01): 2.26 ± 0.82 neurites/cell | Number of cells ([1]; Table 1 Run No. 3, 1 μg/ml): 4.12 × 10^4 /dish | Length of neurites (mean ± S.D.) ([1]; Table 1 Run No. 3, 1 μg/ml, control 45.13 ± 22.71, all *P <0.01): 63.24 ± 28.17 μm/cell | Number of dead animals/number of test animals ([2]; Table 6, 300 mg/kg p.o.): 0/5 | Number of dead animals/number of test animals ([2]; Table 6, 500 mg/kg p.o.): 2/5 | Number of dead animals/number of test animals ([2]; Table 6, 1000 mg/kg p.o.): 4/5 | LD50 at 24 h [7]: 550 to 1000 mg/kg | LD50 at 24 h ([3]; Table 6, p.o.): 550 to 1000 mg/kg | Number of dead animals/number of test animals ([4]; Table 6, 300 mg/kg p.o.): 0/5 | Number of dead animals/number of test animals ([4]; Table 6, 500 mg/kg p.o.): 1/5 | Number of dead animals/number of test animals ([4]; Table 6, 1000 mg/kg p.o.): 3/5 | Average of the proportions ([6]; Table 2 neuro-2a Run No. 1, 1 μg/ml): 17.21% | Average of the proportions ([6]; Table 2 neuro-2a Run No. 1, 10 μg/ml): 15.40% | Average of the proportions [8]: 16.39%
